Structures can show the parent of a compound that is named as a salt.

In general, melting point refers to the temperature, or range, at which the solid turns liquid. In turn, `C=CC[C@@]12CC3C[C@H](O)/C(=C/c4ccccc4)CC3CN1CCc1c2[nH]c2ccccc12` (stereo partly drawn) [Example 10, [2S-(2α,4aα,13β,14aα)]-13b-Allyl-3-benzylidene-1,2,3,4,4a,5,7,8,13,13b,14,14a-dodecahydro-indolo[2′,3′:3,4]pyrido[1,2-b]isoquinolin-2-ol] gave a melting point of 211 to 213 °C.

On to `COc1cc(/C=C2\CC3CN4CCc5c([nH]c6ccccc56)[C@]4(C)CC3CC2=O)cc(OC)c1` (stereo partly drawn) [Example 20, [4aR-[(E),4aα,13bβ, 14aβ]]-3-(3,5-Dimethoxy-benzylidene)-13b-methyl-3,4,4a,5,7,8,13,13b,14,14a-decahydro-1H-indolo[2′,3′:3,4]pyrido[1,2-b]-isoquinolin-2-one], for which the melting point was in the range of 110 to 120 °C.

With `C[C@@]12CC3CC(N)/C(=C/c4ccccc4)CC3CN1CCc1c2[nH]c2ccccc12` (stereo in doubt) (as salt: trifluoroacetic acid salt) [Example 28, 3-Benzylidene-13b-methyl-1,2,3,4,4a,5,7,8,13,13b,14,14a-dodecahydro-indolo[2′,3′: 3,4]pyrido[1,2-b]isoquinolin-2-ylamine], the melting point was 203 to 210 °C.

Turning to `CCC[C@@]12CC3CC(=O)CCC3CN1CCc1c2[nH]c2ccccc12` (stereo partly drawn) [Example 6, [2R-(2α,4aα, 13β, 14aβ)]-13b-Propyl-3,4,4a,5,7,8,13,13b,14,14a-decahydro-1H-indolo[2′,3′;3,4]pyrido[1,2-b]isoquinolin-2-one], the melting point was 255 °C (dec.).

With `C=CC[C@@]12CC3CC(=O)CCC3CN1CCc1c2[nH]c2ccccc12` (stereo partly drawn) [Example 5, [2R-(2α,4aα,13β,14aβ)]-13b-Allyl-3,4,4a,5,7,8,13,13b,14,14a-decahydro-1H-indolo[2′,3′:3,4]pyrido[1,2-b]isoquinolin-2-one], the melting point is 220 to 223 °C.

Take `C[C@@]12CC3C[C@H](O)/C(=C/c4ccc(Cl)c(Cl)c4)CC3CN1CCc1c2[nH]c2ccccc12` (stereo partly drawn) [Example 25, [2R-[2α(E),4aα,13bβ, 14aβ]]-3-(3,4-Dichloro-benzylidene)-13b-methyl-1,2,3,4,4a,5,7,8,13,13b,14,14a-dodecahydro-indolo[2′,3′:3,4]pyrido[1,2-b]-isoquinolin-2-ol]: the melting point fell in the range of 125 to 130 °C.

`COc1cccc(/C=C2\CC3CN4CCc5c([nH]c6ccccc56)[C@]4(C)CC3C[C@@H]2O)c1` (stereo partly drawn) [Example 23] returned a melting point of 140 to 142 °C.

On to `COc1cc(/C=C2\CC3CN4CCc5c([nH]c6ccccc56)[C@]4(C)CC3C[C@@H]2O)cc(OC)c1` (stereo partly drawn) [Example 24, [2R-[2α(E),4aα,13bβ,14aβ]]-3-(3,5-Dimethoxy-benzylidene)-13b-methyl-1,2,3,4,4a,5,7,8,13,13b,14,14a-dodecahydro-indolo[2′,3′:3,4]pyrido[1,2-b]-isoquinolin-2-ol], for which the melting point fell in the range of 128 to 132 °C.

`C[C@@]12CC3CC(=O)/C(=C/c4ccc(Cl)c(Cl)c4)CC3CN1CCc1c2[nH]c2ccccc12` (stereo partly drawn) [Example 21, [4aR-[(E),4aα,13bβ, 14aβ]]-3-(3,4-Dichloro-benzylidene)-13b-methyl-3,4,4a,5,7,8,13,13b,14,14a-decahydro-1H-indolo[2′,3′:3,4]pyrido[1,2-b]-isoquinolin-2-one] came in with a melting point of 140 to 145 °C.

The compound `CCCC[C@@]12CC3C[C@H](O)/C(=C/c4ccccc4)CC3CN1CCc1c2[nH]c2ccccc12` (stereo partly drawn) [Example 12, [2S-(2α,4aα,13β,14aβ)]-3-Benzylidine-13b-butyl-1,2,3,4,4a,5,7,8,13,13b,14,14a-dodecahydro-1-indolo[2′,3′:3,4]pyrido[1,2-b]-isoquinolin-2-ol] came in with a melting point of 222 to 225 °C.

Turning to `CCCC[C@@]12CC3C[C@H](O)CCC3CN1CCc1c2[nH]c2ccccc12` (stereo partly drawn) [Example 1, [2R-(2α,4aα,13β,14aβ)]-13b-Butyl-1,2,3,4,4a,5,7,8,13,13b,14,14a-dodecahydro-indolo[2′,3′:3,4]pyrido[1,2-b]isoquinolin-2-ol], the melting point is 235 °C (dec.).

`CCC[C@@]12CC3C[C@H](O)/C(=C/c4ccccc4)CC3CN1CCc1c2[nH]c2ccccc12` (stereo partly drawn) [Example 11, [2S-(2α,4aα,13β, 14aβ)]-3-Benzylidine-13b-propyl-1,2,3,4,4a,5,7,8,13,13b,14,14a-dodecahydro-indolo[2′,3′:3,4]pyrido[1,2-b]-isoquinolin-2-ol] displayed a melting point of 224 to 226 °C.

On to `CCC[C@@]12CC3C[C@H](O)CCC3CN1CCc1c2[nH]c2ccccc12` (stereo partly drawn) [Example 3, [2R-(2α,4aα,13β,14aβ)]-13b-Propyl-1,2,3,4,4a,5,7,8,13,13b,14,14a-dodecahydro-indolo[2′,3′:3,4]pyrido[1,2-b]isoquinolin-2-ol], for which the melting point was 195 °C (dec.).

`COc1ccc(/C=C2\CC3CN4CCc5c([nH]c6ccccc56)[C@]4(C)CC3CC2=O)cc1OC` (stereo partly drawn) [Example 18, [4aR-[(E),4aα, 13bβ, 14aβ]]-3-(3,4-Dimethoxy-benzylidene)-13b-methyl-3,4,4a,5,7,8,13,13b,14,14a-decahydro-1H-indolo[2′,3′:3,4]pyrido[1,2-b]-isoquinolin-2-one] yielded a melting point of 120 to 125 °C.

Regarding `C=CC[C@@]12CC3C[C@H](O)CCC3CN1CCc1c2[nH]c2ccccc12` (stereo partly drawn) [Example 2, [2R-(2α,4aα, 13β,14aβ)]-13b-Allyl-1,2,3,4,4a,5,7,8,13,13b,14,14a-dodecahydro-indolo[2′,3′:3,4]pyrido[1,2-b]isoquinolin-2-ol], the melting point was 228 to 230 °C.

As for `COc1ccc(/C=C2\CC3CN4CCc5c([nH]c6ccccc56)[C@]4(C)CC3C[C@@H]2O)cc1OC` (stereo partly drawn) [Example 22, [2R-[2α(E),4aα, 13bβ, 14aβ]]-3-(3,4-Dimethoxy-benzylidene)-13b-methyl-1,2,3,4,4a,5,7,8,13,13b,14,14a-dodecahydro-indolo[2′,3′:3,4]pyrido[1,2-b]-isoquinolin-2-ol], the melting point lay in the range of 118 to 121 °C.

The compound `COc1cccc(/C=C2\CC3CN4CCc5c([nH]c6ccccc56)[C@]4(C)CC3CC2=O)c1` (stereo partly drawn) [Example 19, [4aR-[(E),4aα, 13bβ,14aβ]]3-(3-Methoxy-benzylidene)-13b-methyl-3,4,4a, 5,7,8,13,13b,14,14a-decahydro-1H-indolo[2′,3′:3,4]pyrido[1,2-b]-isoquinolin-2-one] showed a melting point of 125 to 130 °C.

With `C[C@@]12CC3CC(=NO)/C(=C/c4ccccc4)CC3CN1CCc1c2[nH]c2ccccc12` (stereo partly drawn) [Example 27, [4aR-[(E),4aα,13bβ,14aβ]]-3-Benzylidene-13b-methyl-3,4,4a,5,7,8,13,13b,14,14a-decahydro-1H-indolo[2′,3′:3,4]pyrido[1 ,2-b]-isoquinolin-2-one oxime], the melting point fell in the range of 142 to 145 °C.
